Measured values taken from patent US11730723B2, “Compounds and methods for treating viral infections” (priority 2020, dated 2023).
Converted amounts (≈) assume the structure as drawn. “And” between values parts separate entries of the source, which are not always exact repeats. Identical values can stand only once. Like-named read-outs stand apart in the source and are kept apart here.

Assays:
[1] = test system: HCoV-OC43; test: HCoV-OC43 efficacy in H292 cells (MTT, 6 days); format: cell-based, HCoV-OC43 (Betacoronavirus 1)
[2] = test system: dengue virus (DENV) serotype 2 strain D2S221; test: Dengue virus D2S221 inhibition assay in Vero cells (immunostaining); conditions: read-out: D2S221 IC50
[3] = in vitro; conditions: African green monkey
[4] = test system: HCoV-OC43; test: HCoV-OC43 CPE assay in Huh-7 cells (neutral red uptake, 6 days); format: cell-based, human coronavirus (HCoV) OC43 strain; conditions: for Raw OD-Absorbance 490 nm: infected Huh-7, neutral red uptake, individual replicates
[5] = test system: HCoV 229E; test: HCoV 229E CPE assay in MRC-5 cells (CellTiter Glo); format: cell-based, human coronavirus (HCoV) 229E; conditions: unidentified human coronavirus, MRC5; MRC-5 cells, CellTiter Glo; read-out: HCoV 229E CPE assay EC50
[6] = test system: SARS-CoV-2 (USA-WA1/2020); conditions: Compound 1 at 25 μM; HCQ at 5 μM; remdesivir 10 μM
[7] = in vitro; conditions: African green monkey, Vero 76 cells
[8] = Cytotoxicity in HepG2 2.2.15 cells (MTS); format: cell-based; conditions: human, same assay plate
[9] = test system: Vero E6 cells; conditions: for viability of Vero E6 cells (percent of vehicle alone): 2-day treatment, mean ± SD of duplicates
[10] = test system: MERS coronavirus (EMC strain); test: microbe, parasite or virus in culture; format: cell-based, MERS-CoV; conditions: Middle East respiratory syndrome-related coronavirus
[11] = in vitro; conditions: African green monkey; remark: listed apart in the source
[12] = test system: alpha coronavirus 229E (CoV-229E); test: CoV-229E virus-induced CPE inhibition in MRC-5 cells (XTT); conditions: 6 days
[13] = Cytotoxicity on Huh7 cells (CellTiter Glo); conditions: human, Huh7 cells without virus
[14] = test system: H292 cells (NCI-H292); test: Cytotoxicity in uninfected H292 cells (MTT); conditions: CC50, uninfected H292 cells
[15] = test system: HBV wild-type strain ayw1; test: Primary anti-HBV assay in HepG2 2.2.15 cells (qPCR of HBV DNA); conditions: Hepatitis B virus, HepG2 2.2.15, 144 h
[16] = test system: Huh-7 cells; test: Cytotoxicity / viability of uninfected Huh-7 cells (XTT, 6 days); conditions: 6 days, raw absorbance 490 nm, individual replicates, listed as Compd. 1
[17] = test system: HCoV OC43; test: HCoV OC43 CPE assay in Huh7 cells (CellTiter Glo); format: cell-based, human coronavirus (HCoV) OC43; conditions: Betacoronavirus 1, OC43, Huh-7; Huh7 cells, CellTiter Glo; read-out: HCoV OC43 CPE Assay EC50
[18] = test system: SARS-CoV-2 (USA-WA1/2020); test: microbe, parasite or virus in culture
[19] = Cytotoxicity on MRC-5 cells (CellTiter Glo); conditions: human, MRC-5 cells without virus

Q: What does the source list for CC(C)C[C@](C)(N)COc1ccc(-c2ccnc(C(F)F)c2)nc1C(F)F [Compound 1, (S)-1-((2′,6-bis(difluoromethyl)-[2,4′-bipyridin]-5-yl)oxy)-2,4-dimethylpentan-2-amine]?
A: EC50 ([1]; Betacoronavirus 1, NCI-H292, EC50, HCoV-OC43 infected H292 cells, MTT, read-out: Efficacy): 1.43 µM; antiviral activity against β-coronavirus OC43 in H292 cells (in words) ([1]; viability of infected H292 cells, FIG. 6): significant antiviral effect; IC50 [2]: 6.66 µM; CC50 [3]: 37 µM; EC50 ([4]; Betacoronavirus 1, OC43, 144 h, Huh-7 cells, 6 days, neutral red): > 30 µM; inhibition at 0.01 µM ([4]; Betacoronavirus 1, OC43, Huh-7, 0.01 μM, mean of duplicates, read-out: Inhibition of OC43 Virus-Induced CPE in Huh-7 Cells): -0.4%; inhibition at 0.04 µM ([4]; Betacoronavirus 1, OC43, Huh-7, 0.04 μM, mean of duplicates, read-out: Inhibition of OC43 Virus-Induced CPE in Huh-7 Cells): -3%; inhibition at 0.12 µM ([4]; Betacoronavirus 1, OC43, Huh-7, 0.12 μM, mean of duplicates, read-out: Inhibition of OC43 Virus-Induced CPE in Huh-7 Cells): -1.2%; inhibition at 0.4 µM ([4]; Betacoronavirus 1, OC43, Huh-7, 0.4 μM, mean of duplicates, read-out: Inhibition of OC43 Virus-Induced CPE in Huh-7 Cells): -1.8%; inhibition at 1.1 µM ([4]; Betacoronavirus 1, OC43, Huh-7, 1.1 μM, mean of duplicates, read-out: Inhibition of OC43 Virus-Induced CPE in Huh-7 Cells): 5.4%; inhibition at 3.3 µM ([4]; Betacoronavirus 1, OC43, Huh-7, 3.3 μM, mean of duplicates, read-out: Inhibition of OC43 Virus-Induced CPE in Huh-7 Cells): 25.2%; inhibition at 10 µM ([4]; Betacoronavirus 1, OC43, Huh-7, 10 μM, mean of duplicates, read-out: Inhibition of OC43 Virus-Induced CPE in Huh-7 Cells): 30.7%; inhibition at 30 µM ([4]; Betacoronavirus 1, OC43, Huh-7, 30 μM, mean of duplicates, read-out: Inhibition of OC43 Virus-Induced CPE in Huh-7 Cells): -7.1%; Raw OD-Absorbance 490 nm ([4]; 0.01 μM, listed as Compd. 1): 0.102 and 0.101; Raw OD-Absorbance 490 nm ([4]; 0.04 μM, listed as Compd. 1): 0.078 and 0.089; Raw OD-Absorbance 490 nm ([4]; 0.12 μM, listed as Compd. 1): 0.092 and 0.099; Raw OD-Absorbance 490 nm ([4]; 0.4 μM): 0.092; Raw OD-Absorbance 490 nm ([4]; 1.1 μM, listed as Compd. 1): 0.115 and 0.165; Raw OD-Absorbance 490 nm ([4]; 3.3 μM, listed as Compd. 1): 0.292 and 0.253; Raw OD-Absorbance 490 nm ([4]; 10 μM, listed as Compd. 1): 0.322 and 0.297; Raw OD-Absorbance 490 nm ([4]; 30 μM, listed as Compd. 1): 0.057 and 0.056; EC50 [5]: 3.64 µM; prevention of the SARS-CoV-2 induced CPE (in words) [6]: partially prevented the virus induced cytopathic effect; CC50 ([7]; CC50 measured by microscopic visual assay): 22 µg/mL (≈ 57.1 µM); CC50 ([7]; CC50 measured by neutral red assay): 11 µg/mL (≈ 28.5 µM); CC50 [8]: 29.3 µM; viability of Vero E6 cells (percent of vehicle alone) ([9]; 1.56 μM): 101.0 ± 5.2%; viability of Vero E6 cells (percent of vehicle alone) ([9]; 3.13 μM): 97.1 ± 5.2%; viability of Vero E6 cells (percent of vehicle alone) ([9]; 6.3 μM): 86.2 ± 3.2%; viability of Vero E6 cells (percent of vehicle alone) ([9]; 12.5 μM): 83.3 ± 1.7%; viability of Vero E6 cells (percent of vehicle alone) ([9]; 25 μM): 80.7 ± 2.4%; viability of Vero E6 cells (percent of vehicle alone) ([9]; 50 μM): 17.3 ± 8.4%; viability of Vero E6 cells (percent of vehicle alone) ([9]; 100 μM): 2.0 ± 0.2%; viability of Vero E6 cells (in words) ([9]; Compound 1 at concentrations lower than 25 μM, HCQ at all concentrations tested): not significantly changed; EC50 ([10]; Vero 76, read-out: EC50 measured by microscopic visual assay): 6.4 µg/mL (≈ 16.6 µM); EC50 ([10]; Vero 76, read-out: EC50 measured by neutral red assay): 5.4 µg/mL (≈ 14 µM); CC50 at 4 days [11]: 13.5 µM; EC50 [12]: ~2.4 µM and 2.4 µM; CC50 [13]: 13.2 µM; Cytotoxicity [14]: 57.72 µM; EC50 [15]: 6.35 µM; EC90 [15]: > 100 µM; Viability of Huh-7 Cells (A490) ([16]; 0.01 μM): 0.749 and 0.746; Viability of Huh-7 Cells (A490) ([16]; 0.04 μM): 0.731 and 0.759; Viability of Huh-7 Cells (A490) ([16]; 0.12 μM): 0.822 and 0.825; Viability of Huh-7 Cells (A490) ([16]; 0.37 μM): 0.886 and 0.928; Viability of Huh-7 Cells (A490) ([16]; 1.1 μM): 0.925 and 0.996; Viability of Huh-7 Cells (A490) ([16]; 3.3 μM): 1.017 and 1.085; Viability of Huh-7 Cells (A490) ([16]; 10 μM): 0.915 and 1.016; Viability of Huh-7 Cells (A490) ([16]; 30 μM): 0.052 and 0.053; Viability of Huh-7 Cells (A490) ([16]; 90 μM): 0.055 and 0.054; EC50 [17]: 6 µM; IC50 ([18]; Severe acute respiratory syndrome coronavirus 2, Vero C1008, 48 h, read-out: Live SARS-CoV-2 Antiviral Assay IC50): 12.5 to 25 µM; viability at 25 µM ([18]; Severe acute respiratory syndrome coronavirus 2, Vero C1008, read-out: cell viability in the infected culture, of the levels observed in uninfected cells): 80%; CC50 [19]: 15 µM
